PubChem BioAssay AID248 (DTP/NCI, 2004)
Where “and” joins values, the source holds several entries; their conditions need not be identical. Identical values can stand only once. Toxic doses and inconclusive results are not listed. Rule as the data show it: active = T/C of 150% or more; inactive = T/C below 125%.

Tested on: L1210 leukemia ip in BDF1 mice, survival T/C
Test: NCI In Vivo Anticancer Drug Screen. Data for tumor model L1210 Leukemia (intraperitoneal) in B6D2F1 (BDF1) mice
Conditions: endpoint: mean survival time, higher = longer survival
Method in brief: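 Tumor cells were implanted, animals were treated, and survival was followed. The result divides the treated measurement by the vehicle-control measurement.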

[1] = dose: 100.0 mg/kg/injection, schedule: Q01DX001 (ip), vehicle: saline
[2] = dose: 100.0 mg/kg/injection, schedule: Q04DX003 (ip), vehicle: saline
[3] = dose: 200.0 mg/kg/injection, schedule: Q01DX001 (ip), vehicle: saline
[4] = dose: 200.0 mg/kg/injection, schedule: Q04DX003 (ip), vehicle: saline
[5] = dose: 400.0 mg/kg/injection, schedule: Q04DX002 (ip), vehicle: Klucel (hydroxypropylcellulose) (HPC)
[6] = dose: 100.0 mg/kg/injection, schedule: Q01DX001 (ip), vehicle: carboxymethylcellulose (CMC)
[7] = dose: 200.0 mg/kg/injection, schedule: Q01DX001 (ip), vehicle: carboxymethylcellulose (CMC)
[8] = dose: 400.0 mg/kg/injection, schedule: Q01DX001 (ip), vehicle: carboxymethylcellulose (CMC)
[9] = dose: 100.0 mg/kg/injection, schedule: Q01DX009 (ip), vehicle: Klucel (hydroxypropylcellulose) (HPC)
[10] = dose: 200.0 mg/kg/injection, schedule: Q01DX009 (ip), vehicle: Klucel (hydroxypropylcellulose) (HPC)
[11] = dose: 400.0 mg/kg/injection, schedule: Q01DX009 (ip), vehicle: Klucel (hydroxypropylcellulose) (HPC)
[12] = dose: 50.0 mg/kg/injection, schedule: Q01DX001 (ip), vehicle: Klucel (hydroxypropylcellulose) (HPC)
[13] = dose: 100.0 mg/kg/injection, schedule: Q01DX001 (ip), vehicle: Klucel (hydroxypropylcellulose) (HPC)
[14] = dose: 75.0 mg/kg/injection, schedule: Q01DX001 (ip), vehicle: saline
[15] = dose: 100.0 mg/kg/injection, schedule: Q04DX002 (ip), vehicle: Klucel (hydroxypropylcellulose) (HPC)
[16] = dose: 200.0 mg/kg/injection, schedule: Q04DX002 (ip), vehicle: Klucel (hydroxypropylcellulose) (HPC)
[17] = dose: 100.0 mg/kg/injection, schedule: Q04DX003 (ip), vehicle: saline with Tween-80
[18] = dose: 200.0 mg/kg/injection, schedule: Q04DX003 (ip), vehicle: saline with Tween-80
[19] = dose: 400.0 mg/kg/injection, schedule: Q04DX003 (ip), vehicle: saline with Tween-80

Measured: T/C

CNC(=O)n1cncn1
inactive: [1] 95 % of control | [2] 101 % of control | [3] 93 % of control | [4] 95 % of control | dose: 400.0 mg/kg/injection, schedule: Q01DX001 (ip), vehicle: saline 95 % of control

Cc1cc(N(CCCOS(C)(=O)=O)CCCOS(C)(=O)=O)ccc1C=Nc1ccc(-c2nc(Cc3ccccc3)sc2C)cc1
inactive: dose: 100.0 mg/kg/injection, schedule: Q01DX009 (ip), vehicle: saline with Tween-80 96 % of control | dose: 200.0 mg/kg/injection, schedule: Q01DX009 (ip), vehicle: saline with Tween-80 98 % of control

CC12c3ccccc3C(C)(c3c1ccc1ccccc31)C1C(=O)OC(=O)C12 (stereo unspecified)
inactive: dose: 25.6 mg/kg/injection, schedule: Q04DX002 (ip), vehicle: Klucel (hydroxypropylcellulose) (HPC) 88 % of control | dose: 64.0 mg/kg/injection, schedule: Q04DX002 (ip), vehicle: Klucel (hydroxypropylcellulose) (HPC) 92 % of control | dose: 160.0 mg/kg/injection, schedule: Q04DX002 (ip), vehicle: Klucel (hydroxypropylcellulose) (HPC) 88 % of control | [5] 98 % of control

O=C(NC(=S)Nc1ccccn1)c1ccccc1
inactive: dose: 25.0 mg/kg/injection, schedule: Q04DX002 (ip), vehicle: other 102 % of control | dose: 50.0 mg/kg/injection, schedule: Q04DX002 (ip), vehicle: other 100 % of control | dose: 100.0 mg/kg/injection, schedule: Q04DX002 (ip), vehicle: other 105 % of control | dose: 200.0 mg/kg/injection, schedule: Q04DX002 (ip), vehicle: other 86 % of control

C=NNc1nc2ccccc2s1
inactive: dose: 100.0 mg/kg/injection, schedule: Q04DX003 (ip), vehicle: gum acacia 96 % of control | dose: 200.0 mg/kg/injection, schedule: Q04DX003 (ip), vehicle: gum acacia 88 % of control

CS(=O)(=O)Oc1ccc(Cl)c2ccccc12
inactive: [6] 98 % of control | [7] 101 % of control | [8] 95 % of control

CN(C(=O)N(C)c1ccccc1)c1ccccc1
inactive: [9] 102 % of control | dose: 100.0 mg/kg/injection, schedule: Q04DX003 (ip), vehicle: Klucel (hydroxypropylcellulose) (HPC) 103 % of control | [10] 96 % of control | dose: 200.0 mg/kg/injection, schedule: Q04DX003 (ip), vehicle: Klucel (hydroxypropylcellulose) (HPC) 103 % of control | [11] 95 % of control | dose: 400.0 mg/kg/injection, schedule: Q04DX003 (ip), vehicle: Klucel (hydroxypropylcellulose) (HPC) 103 % of control

NNC(=O)C1CC12CC2 (stereo unspecified)
inactive: [1] 106 % of control and 109 % of control | [3] 103 % of control

CS(=O)(=O)c1nc2[nH]c(=O)[nH]c(=O)c2cc1C#N
inactive: dose: 25.0 mg/kg/injection, schedule: Q01DX001 (ip), vehicle: Klucel (hydroxypropylcellulose) (HPC) 93 % of control | [12] 98 % of control | [13] 97 % of control

c1cc2ccc3ccc[n+]4c3c2[n+](c1)CC4
inactive: [14] 103 % of control

CNC
inactive: dose: 25.0 mg/kg/injection, schedule: Q04DX002 (ip), vehicle: saline with Tween-80 95 % of control | dose: 50.0 mg/kg/injection, schedule: Q04DX002 (ip), vehicle: saline with Tween-80 88 % of control | dose: 100.0 mg/kg/injection, schedule: Q04DX002 (ip), vehicle: saline with Tween-80 88 % of control

CSc1cccc(N2C(=O)CC(Sc3ccccc3N)C2=O)c1 (stereo unspecified)
inactive: [9] 90 % of control | [10] 95 % of control | [11] 98 % of control

O=C(Nc1ccc(NC(=O)c2ccc(C3=NCCCN3)cc2)cc1)c1ccc(C2=NCCCN2)cc1
inactive: dose: 0.93 mg/kg/injection, schedule: Q01DX Z (ip), vehicle: carboxymethylcellulose (CMC) 106 % of control | dose: 1.87 mg/kg/injection, schedule: Q01DX Z (ip), vehicle: carboxymethylcellulose (CMC) 100 % of control | dose: 3.75 mg/kg/injection, schedule: Q01DX Z (ip), vehicle: carboxymethylcellulose (CMC) 108 % of control and 118 % of control | dose: 30.0 mg/kg/injection, schedule: Q01DX Z (ip), vehicle: carboxymethylcellulose (CMC) 101 % of control | dose: 37.5 mg/kg/injection, schedule: Q01DX Z (oral), vehicle: carboxymethylcellulose (CMC) 101 % of control | dose: 75.0 mg/kg/injection, schedule: Q01DX Z (oral), vehicle: carboxymethylcellulose (CMC) 110 % of control | dose: 150.0 mg/kg/injection, schedule: Q01DX Z (oral), vehicle: carboxymethylcellulose (CMC) 101 % of control | dose: 300.0 mg/kg/injection, schedule: Q01DX Z (oral), vehicle: carboxymethylcellulose (CMC) 106 % of control
active: dose: 7.5 mg/kg/injection, schedule: Q01DX Z (ip), vehicle: carboxymethylcellulose (CMC) 166 % of control and 191 % of control | dose: 15.0 mg/kg/injection, schedule: Q01DX Z (ip), vehicle: carboxymethylcellulose (CMC) 200 % of control and 204 % of control

C/C(Cc1ccccc1)=N\[N+](C)(C)C
inactive: dose: 75.0 mg/kg/injection, schedule: Q01DX009 (ip), vehicle: saline 107 % of control | [2] 104 % of control | dose: 150.0 mg/kg/injection, schedule: Q01DX009 (ip), vehicle: saline 100 % of control | [4] 86 % of control

O=C1CC(c2ccccc2)=CN1c1ccc2ccccc2c1
inactive: [15] 100 % of control | [16] 89 % of control | [5] 100 % of control

C#CC1(OC(=O)NS(=O)(=O)c2ccc(C)cc2)CCCCC1
inactive: dose: 100.0 mg/kg/injection, schedule: Q01DX001 (ip), vehicle: saline with Tween-80 97 % of control | [17] 103 % of control | dose: 200.0 mg/kg/injection, schedule: Q01DX001 (ip), vehicle: saline with Tween-80 101 % of control | [18] 95 % of control | dose: 400.0 mg/kg/injection, schedule: Q01DX001 (ip), vehicle: saline with Tween-80 103 % of control | [19] 101 % of control

NOCc1cnccn1
inactive: [14] 92 % of control | dose: 150.0 mg/kg/injection, schedule: Q01DX001 (ip), vehicle: saline 96 % of control | dose: 300.0 mg/kg/injection, schedule: Q01DX001 (ip), vehicle: saline 88 % of control

O=Nc1ccc2ccccc2c1N=Nc1ccccc1C(=O)O
inactive: [9] 101 % of control | [10] 100 % of control | [11] 103 % of control

CSc1nc2cc(C)c(C)cc2[nH]1
inactive: [17] 107 % of control | [18] 94 % of control | [19] 94 % of control

C=CCN(C(=O)OCC)P(=O)(OCC)OCC
inactive: dose: 12.5 mg/kg/injection, schedule: Q01DX009 (ip), vehicle: saline 102 % of control | dose: 12.5 mg/kg/injection, schedule: Q04DX003 (ip), vehicle: saline 106 % of control | dose: 25.0 mg/kg/injection, schedule: Q01DX009 (ip), vehicle: saline 112 % of control | dose: 25.0 mg/kg/injection, schedule: Q04DX003 (ip), vehicle: saline 106 % of control | dose: 50.0 mg/kg/injection, schedule: Q01DX009 (ip), vehicle: saline 112 % of control | dose: 50.0 mg/kg/injection, schedule: Q04DX003 (ip), vehicle: saline 105 % of control | [2] 112 % of control | dose: 200.0 mg/kg/injection, schedule: Q01DX009 (ip), vehicle: saline 112 % of control | [4] 98 % of control

Oc1ccc2ccccc2c1C(c1ccccc1)N1CCOCC1 (stereo unspecified)
inactive: [15] 88 % of control | [16] 88 % of control | [5] 101 % of control

Cc1cccc(C)c1NC(=O)Nc1ncccn1
inactive: dose: 25.0 mg/kg/injection, schedule: Q04DX002 (ip), vehicle: Klucel (hydroxypropylcellulose) (HPC) 99 % of control | dose: 50.0 mg/kg/injection, schedule: Q04DX002 (ip), vehicle: Klucel (hydroxypropylcellulose) (HPC) 96 % of control | [9] 103 % of control | [15] 105 % of control | [10] 104 % of control | [16] 97 % of control | [11] 101 % of control | [5] 93 % of control

O=C1Nc2ccc(C(=O)O)c(O)c2C1=O
inactive: [12] 112 % of control | [13] 112 % of control | dose: 200.0 mg/kg/injection, schedule: Q01DX001 (ip), vehicle: Klucel (hydroxypropylcellulose) (HPC) 102 % of control

CCC1CC2c3cc(OC)c(OC)cc3CCN2CC1(O)Cc1nccc2c1CCCC2 (stereo unspecified)
inactive: [6] 104 % of control | [7] 103 % of control | [8] 95 % of control
